This is an account of results in patent US7312339B2, “Polyene oxazoles and processes for their preparation” (Thallion Pharmaceuticals Inc., priority 2003, dated 2007).

pIC50: −log10 of the molar value.

The test system of one series is A498 (renal/human). The experiment in a line: In vitro cytotoxicity (MTT cell survival), A498. The class given is cell-based. Particulars: A498, 96 h exposure; for pIC50: Homo sapiens, mean from 3 independent experiments. Here is the method: (§1) Cells were passaged two to three times per week. Cellular viability was examined by staining with trypan blue and only flasks where cell viability was >95% were used to determine cytotxicity.
(§2) Exponentially growing cells (1-3×10^3 cells per 100 μl) were seeded in 96-well plates and incubated for 16 h. Cells were then exposed continuously to various concentrations of compounds of Formula I in serum-supplemented medium. Cell survival was evaluated 96 h later by replacing the culture media with 150 μl fresh medium containing 10 mM 4-(2-hydroxyethyl)-1-piperazineethanesulfonic acid buffer, pH 7.4. Next, 50 μl of 2.5 mg/ml of 3-(4,5-dimethylthiazo-2-yl)-2,5-diphenyltetrazolium bromide (MTT; Sigma, St. Louis, Mo.) in phosphate buffer solution, pH 7.4, was added. After 3-4 h of incubation at 37° C., the medium and MTT was removed, and 200 μl of dimethylsulfoxide was added to dissolve the precipitate of reduced MTT followed by addition of 25 μl glycine buffer (0.1 M glycine plus 0.1 M NaCl, pH 10.5). The absorbance was determined at 570 nm with a microplate reader (BIORAD). Cell survival was estimated as % of cells treated with the vehicle alone.

In the next series the test system is EKVX (lung/human). Description: In vitro cytotoxicity (MTT cell survival), EKVX. It counts as cell-based. The note with it: 96 h exposure; for pIC50: Homo sapiens. As to the method: as §1, §2
Another series deals with HCT116 (colon/human). The experiment in a line: In vitro cytotoxicity (MTT cell survival), HCT116. The class given is cell-based. The note with it: for In Vitro Cytotoxicity Data (Log M): HCT116, 96 h exposure; for pIC50: Homo sapiens, HCT-116, HCT116, 96 h exposure, mean from 3 independent experiments. Here is the method:
as §1, §2

The next series relates to B16 (melanoma/mouse). The experiment in a line: In vitro cytotoxicity (MTT cell survival), B16. It counts as cell-based. Particulars: B16, 96 h exposure; for pIC50: Mus musculus. As to the method: as §1, §2
Series [1] relates to SF-295 (glioblastoma/human). Description: In vitro cytotoxicity (MTT cell survival), SF-295. It counts as cell-based. Particulars: SF-295, 96 h exposure; for pIC50: Homo sapiens. Here is the method:
as §1, §2

The subject of series [2] is MDA-MD-231 (breast/human). Description: In vitro cytotoxicity (MTT cell survival), MDA-MD-231. The class given is cell-based. The note with it: MDA-MD-231, 96 h exposure; for pIC50: Homo sapiens, mean from 3 independent experiments. As to the method:
as §1, §2

Another series deals with T24 (bladder/human). The experiment in a line: In vitro cytotoxicity (MTT cell survival), T24. It counts as cell-based. The note with it: T24, 96 h exposure; for pIC50: Homo sapiens. As to the method: as §1, §2
The nature of series [3]: In vitro cytotoxicity (MTT cell survival), HRE. The class given is cell-based, human. Particulars: human, HRE normal renal cells, 96 h exposure. Here is the method: as §1, §2
Series [4] concerns HRE (renal/normal, human). Description: In vitro cytotoxicity (MTT cell survival), HRE. It counts as cell-based. Particulars: HRE normal renal cells, 96 h exposure. Here is the method: as §1, §2
In another series the test system is P388 (leukemia/mouse). Description: In vitro cytotoxicity (MTT cell survival), P388. The class given is cell-based. Particulars: P388, 96 h exposure; for pIC50: Mus musculus. As to the method: as §1, §2
In a further series the test system is PC3 (prostate/human). The experiment in a line: In vitro cytotoxicity (MTT cell survival), PC3. The class given is cell-based. The note with it: PC3, 96 h exposure; for pIC50: Homo sapiens, mean from 3 independent experiments. Here is the method:
as §1, §2

The term pIC50 denotes −log10 of the IC50, conventionally taken in molar units. The low end stands for a large IC50, the high end for a small IC50. Broadly, the IC50 is the concentration that inhibits the measured activity by half. In the case of `COC(=O)C(C(C)OC)N(C)C(=O)C1(N(O)C(=O)/C=C/C=C/C=C/C=C\CNC(=O)C(C)(C)C(O)\C(C)=C/C=C\C=C\Cc2cnc(C)o2)COCO1` (stereo not shown) [Compound 2], the “In Vitro Cytotoxicity Data (Log M)” value with A498 (renal/human) was “(Log −4.88 M) Log M”; in the series with EKVX (lung/human) it was “(Log −4.62 M) Log M”; in the series with HCT116 (colon/human), “(Log −4.56 M) Log M”; in the series on B16 (melanoma/mouse) it was “(Log −4.34 M) Log M”; in [1], “(Log −4.75 M) Log M”; in series [2] it was “(Log −4.88 M) Log M”. Besides, the “In Vitro Cytotoxicity Data (Log M)” value in the series with T24 (bladder/human) is on record as “(Log −4.72 M) Log M”; in series [4] it was “(Log −4.69 M) Log M”; in the series with P388 (leukemia/mouse), “(Log −5.05 M) Log M”; with PC3 (prostate/human), “(Log −4.67 M) Log M”. Moreover, the negative-log IC50 (pIC50) with A498 (renal/human) is 4.88; with EKVX (lung/human), 4.62; in the series with HCT116 (colon/human) it was 4.56; with B16 (melanoma/mouse), 4.34; in series [1], 4.76; in series [2], 4.88. Besides, the results for the pIC50 in the series on T24 (bladder/human), in the series with P388 (leukemia/mouse) and in the series on PC3 (prostate/human) were 4.72, 5.09 and 4.68, respectively. In addition, in series [3], the midpoint of inhibition, the IC50 at 96 h, lay at 20.2 µM.

On to `COC(=O)C(C(C)OC)N(C)C(=O)C1(N(O)C(=O)/C=C/C=C/C=C/C=C\CNC(=O)C(C)(C)C(O)\C(C)=C/C=C\C=C\Cc2cnco2)COCO1` (stereo not shown) [Compound 1], for which the “In Vitro Cytotoxicity Data (Log M)” value in the series on A498 (renal/human) is “(Log −4.78 M) Log M”; with EKVX (lung/human), “(Log −4.42 M) Log M”; in the series with HCT116 (colon/human), “(Log −4.60 M) Log M”; in the series with B16 (melanoma/mouse), “(Log −4.34 M) Log M”; in series [1], “(Log −4.56 M) Log M”; in series [2], “(Log −4.88 M) Log M”. Further, the “In Vitro Cytotoxicity Data (Log M)” value in the series on T24 (bladder/human) is on record as “(Log −4.51 M) Log M”; in [4], “(Log −5.05 M) Log M”; in the series with P388 (leukemia/mouse) it was “(Log −5.19 M) Log M”; with PC3 (prostate/human), “(Log −4.69 M) Log M”. Also, the pIC50 was 4.81 in the series with A498 (renal/human); 4.43 in the series with EKVX (lung/human); 4.61 in the series with HCT116 (colon/human); 4.35 in the series with B16 (melanoma/mouse); 4.57 in series [1]; 4.89 in series [2]. Moreover, the pIC50 was 4.52 in the series with T24 (bladder/human), 5.20 with P388 (leukemia/mouse) and 4.68 in the series with PC3 (prostate/human). The compound also came in with an IC50 at 96 h in [3] of 8.8 µM.
